Experimental data from patent US20230159436A1, “APPLICATIONS OF AMIDE ANALOGS OF TRITERPENES IN CURES OF CANCER AND OTHER DISEASES” (Pacific Arrow Limited, priority 2021, published 2023).
Converted amounts (≈) assume the structure as drawn. Like-named read-outs stand apart in the source and are kept apart here.

Assays:
[1] = system: cancer growth, cancer invasion, cells invasion or cancer cell invasion; experiment: Inhibition of cancer growth and invasion (anti-cancer activity); assay type: cell-based
Description: The program is based on the purification methods and biological assays including the MTT assay as described in International Application No. PCT/US05/31900, filed Sep. 7, 2005, U.S. Ser. No. 11/289,142, filed Nov. 28, 2005, and U.S. Ser. No. 11/131,551, filed May 17, 2005, and PCT/US2008/002086, 1188-ALA-PCT, filed Feb. 15, 2008, Ser. No. 12/344,682, 1020-B1-US, filed Dec. 29, 2008, US009499577B2, filed Jun. 24, 2014. The details of Analysis of gene expression of ES2 cells after Y-treatment by Microarray, Data Analysis Methods and Western blot in PCT/US2008/002086, 1188-ALA-PCT, filed Feb. 15, 2008, and the cell invasion experiments methods in International Application PCT/US2010/0042240, filed Jul. 16, 2010.

red blood cells (RBC) = experiment: Haemolytic assay; assay type: cell-based, human
Experimental: Erythrocytes (RBC) were isolated from human blood (EDTA whole blood, collected randomly). 50 ul of the 10% RBC suspension (in PBS) was added to 2 ml of sample solutions (concentration range from 0.1 ug/ml to 400 ug/ml) in PBS. The mixture was vortexed briefly and sat for 60 min at room temperature. The mixture was spun at 3K for 10 min and the relative amounts of lysed hemoglobin in the supernatant were measured at 540 nm. The synthetic compounds of present application were tested with this method.

[2] = system: U2OS, H460, HTB-9, ES2, HCT116, Capan, OVCAR3, DU145, SK-Mel-5, KB, A498, MCF-7, HepG2, T98G, K562, HeLa; experiment: MTT Cytotoxic Assay of reaction products and isolated compounds; assay type: cell-based
Description: The peaks, fractions and compounds are selected according to the activities of times studies and the changes of peaks. Selecting the HPLC fractions for isolation is according to the cytotoxic activity of the reaction product obtained at a specific time. The compounds having strong to weak activities are selected and isolated. Selecting the HPLC fractions for isolation may be according to the cytotoxic activity of times studies and the change of peaks. The anti cancer activities are the MTT studies of bone (U2OS), lung (H460), bladder (HTB-9), ovary (ES2), colon (HCT116), pancreas (Capan), ovary (OVCAR3), prostate (DU145), skin (SK-Mel-5), mouth (KB), kidney (A498), breast (MCF-7), liver (HepG2), brain (T98G), luekemia (K562), cervix (HeLa).
Esterification, amidation, amination, or sulfonamidation of compound (A), (B), (C), (D1), (D2), (E), (F), (G), (H1), (H2), E4A, E4A2Y, E4D, E4D1, (P1), P(2), terpene, isoprene, triterpenes, hydroxylated triterpenes, with acyl halide, wherein the halide comprise chloride, bromide, fluoride and iodide, wherein the acyl halide comprise acyl chloride, wherein acyl chloride comprise tigloyl chloride, angeloyl chloride, acetyl chloride, crotonoyl chloride, 3,3-dimethylartyloyl chloride, senecioyl chloride, cinnamoyl chloride, pentenoyl chloride, hexanoyl chloride, benzoyl chloride, ethylbutyryl chloride, propionyl chloride, 2-propenoyl chloride, isobutyryl chloride, butyryl chloride, (2E)-2-pentenoyl chloride, 4-Pentenoyl chloride, 5-hexenoyl chloride, heptanoyl chloride, octanoyl chloride, nonanoyl chloride, decanoyl chloride, Lauroyl chloride, myristoyl chloride, oleoyl chloride. The compounds vary in composition when the time or temperature of the reaction is changed. The peaks, fractions and compounds are selected according to the activities of times studies and the changes of peaks. The compounds having strong to weak activities are selected and isolated. The anti cancer activities (Cytotoxic Assay) are the MTT studies of bone (U2OS), lung (H460), bladder (HTB-9), ovary (ES2), colon (HCT116), pancreas (Capan), ovary (OVCAR3), prostate (DU145), skin (SK-Mel-5), mouth (KB), kidney (A498), breast (MCF-7), liver (HepG2), brain (T98G), luekemia (K562), cervix (HeLa). The active esterification, amidation, amination, or sulfonamidation products are purified with HPLC. The reaction product of mixtures and individual compounds are tested with MTT Cytotoxic Assay. Details of method are in Experiment 3 of the present application. A second esterification of compound can be selected from the above experiment results to produce new active compounds. A partial esterification compound is selected from the above experiments to perform a second or repeated with a third esterification with different acyl chloride in order to produce new active compounds with the experiments in the present application. The active compounds of this invention are triterpenes in form of amine, sulfonamides, amide, and urea analogs, providing extremely stable activity in solution. They prolong the activities and duration of drug in a subject.
(§1) Cells. HTB-9 (bladder), HeLa-S3 (cervix), DU145 (prostate), H460 (lung), MCF-7 (breast), K562 (leukemia), HCT116 (colon), HepG2 (liver), U2OS (bone), T98G (brain), SK-MEL-5 (Skin) and OVCAR 3, ES2 (ovary), Pancreas (Capan), Mouth (KB), Kidney (A498).
MTT Assay. The procedure for MTT assay followed the method described by Carmichael et al. (1987) with modifications. The cells were seeded into a 96-well plate at for 24 hours before drug-treatment. The cells were then exposed to the drugs for 48, 72, or 96 hours. After the drug-treatment, MTT (0.5 mg/mL) was added to cultures and incubated for an hour. The formazan (product of the reduction of tetrazolium by viable cells) formed and was dissolved with DMSO and the O.D. at 490 nm, and was measured by an ELISA reader. The MTT level of the cells before drug-treatment was also measured (T0). […]

ovarian cancer cells = experiment: Inhibiting growth of ovarian cancer cells; assay type: cell-based
OVCAR3 = experiment: MTT assay, ovary (OVCAR3); assay type: cell-based
Experimental: as §1
MTT Assay. The procedure for MTT assay followed the method described by Carmichael et al. (1987) with modifications. The cells were seeded into a 96-well plate at for 24 hours before drug-treatment. The cells were then exposed to the drugs for 48, 72, or 96 hours. After the drug-treatment, MTT (0.5 mg/mL) was added to cultures and incubated for an hour. The formazan (product of the reduction of tetrazolium by viable cells) formed and was dissolved with DMSO and the O.D. at 490 nm, and was measured by an ELISA reader. The MTT level of the cells before drug-treatment was also measured (T0). The % cell-growth (% G) is calculated as: % G=(TD−T0/TC−T0)×100(1), where TC or TD represents O.D. readings of control or drug-treated cells.
When T0>TD, then the cytotoxicity (LC) expressed as % of the control is calculated as: % LC=(TD−T0/T0)×100(2).

## CC1(C)CC2C3=CCC4C5(C)CCC(N)C(C)(CN)C5CCC4(C)C3(C)CC(N)C2(CN)C(N)C1N (stereo not drawn) [E4D1]
[1]
  anti-cancer activity: no anti-cancer activity
  inhibiting cancer growth, cancer invasion, cells invasion or cancer cell invasion: no effect
Red blood cells (RBC)
  hemolytic activity: no hemolytic activity
[2]
  Cytotoxicity activity: none and moderate and NONE
[2]; listed as E1E4D1
  Cytotoxicity activity: none
[2]; listed as I 1E4D1
  Cytotoxicity activity: none

## CC1(C)CC2C3=CCC4C5(C)CCC(O)C(C)(CN)C5CCC4(C)C3(C)CC(O)C2(CN)C(O)C1O (stereo not drawn) [E4D]
[1]
  anti-cancer activity: no anti-cancer activity
  inhibiting cancer growth, cancer invasion, cells invasion or cancer cell invasion: no effect
Red blood cells (RBC)
  hemolytic activity: no hemolytic activity
[2]
  Cytotoxicity activity: none and None

## CC1(C)CC2C3=CCC4[C@@]5(C)CC[C@H](O)[C@](C)(CO)C5CC[C@@]4(C)[C@]3(C)C[C@@H](O)[C@@]2(CO)[C@@H](O)[C@@H]1O (stereo partly drawn) [E4A]
[1]
  anti-cancer activity: no anti-cancer activity
  inhibiting cancer growth, cancer invasion, cells invasion or cancer cell invasion: no effect
Red blood cells (RBC)
  hemolytic activity: no hemolytic activity
[2]; FIG. 8, FIG. 10
  MTT cytotoxic activity: no activity

## C/C=C(/C)C(=O)O[C@@H]1[C@H](C)CC2C3=CCC4[C@@]5(C)CC[C@H](O[C@@H]6OC(C(=O)O)[C@@H](O)C(O[C@@H]7O[C@@H](CO)C(O)C7O)C6O[C@@H]6OC(CO)[C@H](O)C(O)C6O)C(C)(C)C5CC[C@@]4(C)[C@]3(C)[C@@H](O)[C@@H](O)[C@@]2(CO)[C@H]1OC(=O)/C(C)=C\C (stereo partly drawn) [Compound Y, 3-O-[β-D-galactopyranosyl (1→2)]-α-L-arabinofuranosy (1→3)-β-D-glucuronopyranosyl-21,22-O-diangeloyl-3β,15α,16α,21β,22α,28-hexahydroxyolean-12-ene]
Ovarian cancer cells
  IC50: ~1.5 µg/mL (≈ 1.33 µM)

## CC=C(C)C(=O)OCC1(C)C(O)CCC2(C)C1CCC1(C)C2CC=C2C3CC(C)(C)C(O)C(OC(=O)C(C)=CC)C3(COC(=O)C(C)=CC)C(O)CC21C (stereo not drawn) [Tig-T]
[1]
  anti-cancer activity: have anti cancer activities
OVCAR3
  IC50 of ovary (OVCAR3): 25

## CC=C(C)C(=O)OCC1(C)C(OC(=O)C(C)=CC)CCC2(C)C1CCC1(C)C2CC=C2C3CC(C)(C)C(OC(=O)C(C)=CC)C(O)C3(CO)C(O)CC21C (stereo not drawn) [Tig-U]
OVCAR3
  IC50 of ovary (OVCAR3): 27

## CC=C(C)C(=O)OCC1(C)C(O)CCC2(C)C1CCC1(C)C2CC=C2C3CC(C)(C)C(O)C(O)C3(CO)C(O)CC21C (stereo not drawn) [Tig-N]
[1]
  anti-cancer activity: have anti cancer activities
OVCAR3
  IC50 of ovary (OVCAR3): 18

## CC=C(C)C(=O)OCC1(C)C(O)CCC2(C)C1CCC1(C)C2CC=C2C3CC(C)(C)C(OC(=O)C(C)=CC)C(O)C3(COC(=O)C(C)=CC)C(O)CC21C (stereo not drawn) [Tig-V]
[1]
  anti-cancer activity: have anti cancer activities
OVCAR3
  IC50 of ovary (OVCAR3): 9

## CC=C(C)C(=O)OCC1(C)C(O)CCC2(C)C1CCC1(C)C2CC=C2C3CC(C)(C)C(O)C(OC(=O)C(C)=CC)C3(CO)C(O)CC21C (stereo not drawn) [Tig-Q]
[1]
  anti-cancer activity: have anti cancer activities
OVCAR3
  IC50 of ovary (OVCAR3): 23
